Experimental data: article PMC9000570, “Thiazole/Thiadiazole/Benzothiazole Based Thiazolidin-4-One Derivatives as Potential Inhibitors of Main Protease of SARS-CoV-2” (Molecules, 2022)

Key:
SARS-CoV-2 3CL protease = SARS-CoV-2 3CL protease (Severe acute respiratory syndrome coronavirus 2, UniProt P0DTD1); experiment: biochemical; type: biochemical; details: for IC50: dose range 0.005 to 50 µM
human normal MRC-5 cells = experiment: MTT cell viability assay; type: cell-based; details: 48 h
[1] = system: feline infectious peritonitis; details: upon treatment of FIP in cats; cited from earlier work

Row | Compound | inhibition at 50 µM (SARS-CoV-2 3CL protease; 50 μM compound) [%] | IC50 (SARS-CoV-2 3CL protease) [µM] | inhibition of cellular viability (human normal MRC-5 cells; MRC-5, 0.01 μM) [%] | inhibition of cellular viability (human normal MRC-5 cells; MRC-5, 0.1 μM) | inhibition of cellular viability (human normal MRC-5 cells; MRC-5, 1 μM) [%] | inhibition of cellular viability (human normal MRC-5 cells; MRC-5, 10 μM) [%] | other results
1 | COc1cccc2sc(N3C(=O)CSC3c3ccc([N+](=O)[O-])cc3)nc12 (stereo not drawn) [e2] | 31.3 | > 50 | – | – | – | – | –
2 | O=C1CSC(c2ccc(F)cc2)N1c1nc2ccc(OC(F)(F)F)cc2s1 (stereo not drawn) [h6] | 25.2 | > 50 | – | – | – | – | –
3 | O=C1CSC(c2c(F)cccc2Cl)N1c1nc2cccc(Cl)c2s1 (stereo not drawn) [a2] | 91.3 | – | 68.5 | 78.4% | 95.5 | 100 | –
4 | O=C1CSC(c2ccc(F)cc2)N1c1nc2ccc(Cl)cc2s1 (stereo not drawn) [c1] | 88 | 4.74 | 31.0 | 43,0% | 36.1 | 80.3 | –
5 | O=C1CSC(c2c(F)cccc2Cl)N1c1nc2ccc(C34CC5CC(CC(C5)C3)C4)cc2s1 (stereo not drawn) [m2] | 2.79 | > 50 | – | – | – | – | –
6 | O=C1CSC(c2ccc(F)cc2)N1c1nc2c(Cl)cccc2s1 (stereo not drawn) [d1] | 6.72 | > 50 | – | – | – | – | –
7 | Cc1cc(C23CC4CC(CC(C4)C2)C3)cc2sc(N3C(=O)CSC3c3c(F)cccc3F)nc12 (stereo not drawn) [n2] | 100 | 9.98 | 20.8 | 73.4% | 90.7 | 100 | –
8 | N#Cc1ccc2nc(N3C(=O)CSC3c3c(F)cccc3Cl)sc2c1 (stereo not drawn) [k3] | 100 | 0.01 | 57 | 64% | 100 | 100 | –
9 | 3-(5,6-dichlorobenzo[d]thiazol-2-yl)-2-(4-fluorophenyl)thiazolidin-4-one [a3] | – | > 50 | – | – | – | – | % Inhibition at 50 μM (SARS-CoV-2 3CL protease; 50 μM compound): 0%
10 | O=C1CSC(c2ccc(F)cc2)N1c1nc2ccc(F)cc2s1 (stereo not drawn) [b1] | 0 | > 50 | – | – | – | – | –
11 | O=C1CSC(c2c(F)cccc2F)N1c1nc2cccc(Cl)c2s1 (stereo not drawn) [a1] | 0 | > 50 | – | – | – | – | –
12 | O=C1CSC(c2ccc(O)cc2)N1c1nc2ccc(Cl)cc2s1 (stereo not drawn) [c5] | 7.87 | > 50 | – | – | – | – | inhibitory activity on main protease (in words) (SARS-CoV-2 3CL protease): inactive
13 | O=C1CSC(c2ccc(Cl)cc2)N1c1nc2ccc(OC(F)(F)F)cc2s1 (stereo not drawn) [h8] | 3.04 | > 50 | – | – | – | – | –
14 | CC(C)CC(NC(=O)OCc1ccccc1)C(=O)NC(CC1CCNC1=O)C(O)S(=O)(=O)O (stereo not drawn) [GC376] | – | – | – | – | – | – | side effects [1]: subcutaneous fibrosis, transient stinging at the injection sites, hair loss, and abnormal eruption of permanent teeth in juvenile cats
15 | O=C1CSC(c2ccc(Br)cc2)N1c1nc2ccc(C34CC5CC(CC(C5)C3)C4)cc2s1 (stereo not drawn) [m11, 3-(6-(adamantan-1-yl)benzo[d]thiazol-2-yl)-2-(4-bromophenyl)thiazolidin-4-one] | 45 | > 50 | 65.0 | 81.3% | 89.4 | 100 | inhibitory activity on main protease (in words) (SARS-CoV-2 3CL protease): moderate activity; melting point: 275 to 276 °C
